US9522881B2, “Hydroxyindole carboxylic acid based inhibitors for oncogenic Src homology-2 domain containing protein tyrosine phosphatase-2 (SHP2)” (Indiana University Research and Technology Corporation, priority 2013, dated 2016)

Biological target: SHP2 (Homo sapiens (Human), UniProt Q06124)
Experiment: SHP2-catalyzed hydrolysis of p-nitrophenyl phosphate (pNPP)
Type: biochemical
Details: pNPP substrate, pH 7.0, 25° C.
Method: Libraries 11a-d were screened at ˜5 μM for SHP2 inhibitors without further purification. The ability of the library components to inhibit the SHP2-catalyzed hydrolysis of p-nitrophenyl phosphate (pNPP) was evaluated at pH 7.0 and 25° C. More particularly, the phosphatase activity of SHP2 was assayed using p-nitrophenyl phosphate (pNPP) as a substrate at 25° C. in 50 mM 3,3-dimethylglutarate buffer, pH 7.0, containing 1 mM EDTA with an ionic strength of […] adjusted by NaCl. The libraries were screened in a 96-well format at 5 μM compound concentration. […] The nonenzymatic hydrolysis of pNPP was corrected by measuring the control without the addition of enzyme. The amount of product p-nitrophenol was determined from the absorbance at 405 nm detected by a Spectra MAX340 microplate spectrophotometer (Molecular Devices, Sunnyvale, Calif.) using a molar extinction coefficient of 18,000 M^−1 cm^−1. […] IC50 values for selected resynthesized and purified hits were calculated by fitting the absorbance at 405 nm versus inhibitor concentration to the following equation: AI/A0=IC50/(IC50+[I]) where AI is the absorbance at 405 nm of the sample in the presence of the inhibitor; A0 is the absorbance at 405 nm in the absence of inhibitor; and [I] is the concentration of the inhibitor.

SHP2, sequence (Q06124 whole entry, looked up): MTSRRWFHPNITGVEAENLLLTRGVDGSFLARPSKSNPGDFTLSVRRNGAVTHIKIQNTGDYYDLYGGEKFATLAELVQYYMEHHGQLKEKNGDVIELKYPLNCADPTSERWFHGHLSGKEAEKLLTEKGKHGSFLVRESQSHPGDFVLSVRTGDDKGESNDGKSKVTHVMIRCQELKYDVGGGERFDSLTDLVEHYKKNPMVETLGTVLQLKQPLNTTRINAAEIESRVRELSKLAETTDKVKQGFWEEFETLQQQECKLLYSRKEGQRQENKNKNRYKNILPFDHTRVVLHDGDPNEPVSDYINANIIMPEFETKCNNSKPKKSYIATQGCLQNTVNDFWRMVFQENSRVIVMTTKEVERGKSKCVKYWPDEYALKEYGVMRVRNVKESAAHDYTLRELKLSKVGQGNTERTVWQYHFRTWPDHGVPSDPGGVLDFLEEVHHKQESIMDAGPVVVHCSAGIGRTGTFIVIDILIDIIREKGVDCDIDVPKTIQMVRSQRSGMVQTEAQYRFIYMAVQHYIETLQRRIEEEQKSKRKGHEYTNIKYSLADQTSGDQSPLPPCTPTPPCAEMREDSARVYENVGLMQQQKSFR

Structure (SMILES)	IC50 [µM]
Cn1c(-c2cccc(NC(=O)CCC(=O)Nc3cccc(OCc4ccccc4)c3)c2)c(I)c2cc(C(=O)O)c(O)cc21 [11c-4, 2-(3-(4-((3-(benzyloxy)phenyl)amino)-4-oxobutanamido)phenyl)-6-hydroxy-3-iodo-1-methyl-1H-indole-5-carboxylic acid]	4.5 ± 1.4
Cn1c(-c2cccc(NC(=O)CCC(=O)Nc3cccc(-c4ccccc4)c3)c2)c(I)c2cc(C(=O)O)c(O)cc21 [11c-5, 2-(3-(4-([1,1′-biphenyl]-3-ylamino)-4-oxobutanamido)phenyl)-6-hydroxy-3-iodo-1-methyl-1H-indole-5-carboxylic acid]	5.3 ± 0.9
Cn1c(-c2cccc(NC(=O)CCC(=O)N3CCc4cc(Br)ccc43)c2)c(I)c2cc(C(=O)O)c(O)cc21 [11c-6, 2-(3-(4-(5-bromoindolin-1-yl)-4-oxobutanamido)phenyl)-6-hydroxy-3-iodo-1-methyl-1H-indole-5-carboxylic acid]	7.2 ± 0.9
Cn1c(-c2cccc(NC(=O)CCC(=O)Nc3ccc(OC(F)(F)F)cc3)c2)c(I)c2cc(C(=O)O)c(O)cc21 [11c-7, 6-hydroxy-3-iodo-1-methyl-2-(3-(4-oxo-4-((4-(trifluoromethoxy)phenyl)amino)butanamido)phenyl)-1H-indole-5-carboxylic acid]	8.6 ± 2.3
CC(C)c1ccc(NC(=O)CCC(=O)Nc2cccc(-c3c(I)c4cc(C(=O)O)c(O)cc4n3C)c2)cc1 [11c-8, 6-hydroxy-3-iodo-2-(3-(4-((4-isopropylphenyl)amino)-4-oxobutanamido)phenyl)-1-methyl-1H-indole-5-carboxylic acid]	10.7 ± 2.4
Cn1c(-c2cccc(NC(=O)CCC(=O)NCc3ccc4c(c3)OCO4)c2)c(I)c2cc(C(=O)O)c(O)cc21 [11c-9, 2-(3-(4-((benzo[d][1,3]dioxol-5-ylmethyl)amino)-4-oxobutanamido)phenyl)-6-hydroxy-3-iodo-1-methyl-1H-indole-5-carboxylic acid]	14 ± 1
CCCN(CC1CC1)C(=O)CCC(=O)Nc1cccc(-c2c(I)c3cc(C(=O)O)c(O)cc3n2C)c1 [11c-10, 2-(3-(4-((cyclopropylmethyl)(propyl)amino)-4-oxobutanamido)phenyl)-6-hydroxy-3-iodo-1-methyl-1H-indole-5-carboxylic acid]	> 20
Cn1c(-c2cccc(NC(=O)CCC(=O)Nc3nccs3)c2)c(I)c2cc(C(=O)O)c(O)cc21 [11c-11, 6-hydroxy-3-iodo-1-methyl-2-(3-(4-oxo-4-(thiazol-2-ylamino)butanamido)phenyl)-1H-indole-5-carboxylic acid]	26 ± 5
